Where two headings read alike, the source gives them in different places.
What was measured:
[1] = Toxicity test, albino rat/peroral; details: in vivo, po; albino rat; peroral; evaluation after 7 days
Description: Test animal: Albino rat (Rattus norvegicus)
To produce a suitable preparation of active compound, 3 parts by weight of active compound were mixed with 2.8 parts by weight of highly disperse silica and 4.2 parts by weight of talc. Suspensions, which contained, in 1 ml of liquid, the amount of active compound to be adminstered per 100 g of animal weight, were prepared from the above active-compound concentrate, with addition of a little powdered vegetable gum, by trituration with water. The dosage was measured out volumetrically after weighing the test animals. It was administered orally by means of a steel knob-ended probe. The results were in each case evaluated at the end of the above-mentioned interval of time, calculated from the administration of the active compound.
The LD50 values (dose of active compound which kills 50% of the treated animals) was determined from the mortality values of the dose which were varied in geometrical progression, in the usual manner.
The active compounds and LD50 values can be seen from Table 5 which follows.

[2] = system: fly larvae (Lucilia cuprina); assay: Test with parasitic fly larvae/Lucilia cuprina res.; format: in vivo; details: after 24 hours, resistant larvae, read-out: Degree of destruction in %; for mortality at 10 ppm: active compound concentration 10 ppm; for mortality at 30 ppm: active compound concentration 30 ppm; for mortality at 100 ppm: active compound concentration 100 ppm
Description: Test with parasitic fly larvae
35 parts by weight of ethylene polyglycol monomethyl ether
35 parts by weight of nonylphenol polyglycol ether
To produce a suitable preparation of active compound, 30 parts by weight of the active substance in question were mixed with the stated amount of solvent which contained the above-mentioned proportion of emulsifier and the concentrate thus obtained was diluted with water to the desired concentration.
About 20 fly larvae (Lucilia cuprina) were introduced into a test tube which contained approximately 2 ml of horse muscle. 0.5 ml of the preparation of active compound was applied to this horse meat. After 24 hours, the degree of destruction in % was determined. 100% means that all the larvae had been killed and 0% means that no larvae had been killed.

[3] = system: two-spotted spider mite (Tetranychus urticae); assay: Tetranychus test (resistant); format: in vivo; details: 48 h, after 2 days, resistant mites, read-out: Degree of destruction in % after 2 days; for mortality at 0.01 %: active compound concentration 0.01 %; for mortality at 0.1 %: active compound concentration 0.1 %
Description: Tetranychus test (resistant)
(§1) Solvent: 3 parts by weight of acetone
(§2) Emulsifier: 1 part by weight of alkylaryl polyglycol ether
(§3) To produce a suitable preparation of active compound, 1 part by weight of the active compound was mixed with the stated amount of solvent containing the stated amount of emulsifier and the concentrate was diluted with water to the desired concentration.
These bean plants were heavily infested with the two-spotted spider mite (Tetranychus urticae) in all stages of development.
After the specified periods of time, the effectiveness of the preparation of active compound was determined by counting the dead mites. The degree of destruction thus obtained was expressed as a percentage: 100% means that all the spider mites were killed whereas 0% means that none of the spider mites were killed.
The active compounds, the concentrations of the active compounds, the evaluation times and the results can be seen from the following Table 3: […]

[4] = system: vinegar flies (Drosophila melanogaster); assay: Drosophila test; format: in vivo; details: 24 h, read-out: Degree of destruction in % after 1 day; for mortality at 0.01 %: active compound concentration 0.01 %
Description: as §1, §2
To produce a suitable preparation of active compound, 1 part by weight of the active compound was mixed with the stated amount of solvent containing the stated amount of emulsifier, and the concentrate was diluted with water to the desired concentration.
1 ml of the preparation of the active compound was applied with a pipette to a filter paper disc of 7 cm diameter. The wet disc was placed over the orifice of a glass vessel containing 50 vinegar flies (Drosophila melanogaster) and covered with a glass plate.
After the specified periods of time, the destruction was determined in %. 100% means that all the flies were killed, and 0% means that no flies were killed.
The active compounds, the concentrations of the active compounds, the evaluation times and the degree of destruction can be seen from the following Table 1: […]

[5] = system: caterpillars of the diamond-back moth (Plutella maculipennis); assay: Plutella test; format: in vivo; details: 72 h, read-out: Degree of destruction in % after 3 days; for mortality at 0.001 %: active compound concentration 0.001 %; for mortality at 0.01 %: active compound concentration 0.01 %
Description: as §1, §2, §3
Cabbage leaves (Brassica oleracea) were sprayed with the preparation of the active compound until dew moist and were then infested with caterpillars of the diamond-back moth (Plutella maculipennis).
After the specified periods of time, the degree of destruction was determined as a percentage: 100% means that all the caterpillars were killed, whereas 0% means that none of the caterpillars were killed.
The active compounds, the concentrations of the active compounds, the evaluation times and the results can be seen from the following Table 2.

[6] = system: warm-blooded animals; details: prior-art compounds; cited from earlier work
[7] = system: insects and acarids; details: prior-art compounds; cited from earlier work
[8] = active compound concentration 0.1 %, after 1 day
[9] = active compound concentration 0.1 %, after 3 days

## CCCSP(=S)(OCC)Oc1ccc(=O)[nH]n1 (stereo not drawn) [Compound 1, O-ethyl-S-n-propyl-O-[pyridaz-(6)-on-(3)-yl]-thionothiolphosphoric acid ester]
[1]
  LD50 at 168 h: 100 to 250 mg/kg

## CCCSP(=S)(OCC)Oc1ccc(=O)n(CCC#N)n1 (stereo not drawn) [Compound 2, O-ethyl-S-n-propyl-O-[1-β-cyanoethyl-pyridaz-(6)-on-(3)-yl]-thionothiolphosphoric acid ester]
[2]
  mortality at 10 ppm: 100%
  mortality at 30 ppm: 100%
  mortality at 100 ppm: 100%
[1]
  LD50 at 168 h: 250 to 500 mg/kg

## CCCSP(=S)(OCC)Oc1ccc(=O)n(C)n1 (stereo not drawn) [Compound 3]
[3]
  mortality at 0.01 %: 70%
  mortality at 0.1 %: 100%
[4]; after 1 day
  mortality at 0.01 %: 100%
[4]; [8]
  mortality at 0.1 %: 100%
[2]
  mortality at 10 ppm: 100%
  mortality at 30 ppm: 100%
  mortality at 100 ppm: 100%
[1]
  LD50 at 168 h: 100 to 250 mg/kg

## C=CCn1nc(OP(=S)(OCC)SCCC)ccc1=O (stereo not drawn) [Compound 6]
[3]
  mortality at 0.01 %: 55%
  mortality at 0.1 %: 100%
[4]; after 1 day
  mortality at 0.01 %: 100%
[4]; [8]
  mortality at 0.1 %: 100%
[1]
  LD50 at 168 h: ~500 mg/kg

## C#CCn1nc(OP(=S)(OCC)SCCC)ccc1=O (stereo not drawn) [Compound 7]
[3]
  mortality at 0.01 %: 45%
  mortality at 0.1 %: 100%
[4]; after 1 day
  mortality at 0.01 %: 100%
[4]; [8]
  mortality at 0.1 %: 100%
[1]
  LD50 at 168 h: ~250 mg/kg

## CCCSP(=S)(OCC)Oc1ccc(=O)n(CCSCC)n1 (stereo not drawn) [Compound 8]
[3]
  mortality at 0.01 %: 80%
  mortality at 0.1 %: 100%
[4]; after 1 day
  mortality at 0.01 %: 100%
[4]; [8]
  mortality at 0.1 %: 100%
[1]
  LD50 at 168 h: 250 to 500 mg/kg

## CCCSP(=S)(OCC)Oc1ccc(=O)n(CC(=O)OCC)n1 (stereo not drawn) [Compound 9]
[1]
  LD50 at 168 h: ~500 mg/kg

## CCCSP(=S)(OCC)Oc1ccc(=O)n(CCC(C)=O)n1 (stereo not drawn) [Compound 10]
[1]
  LD50 at 168 h: 250 to 500 mg/kg

## CCCSP(=S)(OCC)Oc1ccc(=O)n(CCC(=O)OC)n1 (stereo not drawn) [Compound 11]
[1]
  LD50 at 168 h: ~250 mg/kg

## CCCSP(=S)(OCC)Oc1ccc(=O)n(-c2ccccc2)n1 (stereo not drawn) [Compound 13]
[3]
  mortality at 0.01 %: 100%
  mortality at 0.1 %: 100%
[4]; after 1 day
  mortality at 0.01 %: 100%
[4]; [8]
  mortality at 0.1 %: 100%
[5]; after 3 days
  mortality at 0.001 %: 95%
  mortality at 0.01 %: 100%
[5]; [9]
  mortality at 0.1 %: 100%
[1]
  LD50 at 168 h: 250 to 500 mg/kg

## CCCSP(=S)(OCC)Oc1ccc(=O)n(-c2cccc([N+](=O)[O-])c2)n1 (stereo not drawn) [Compound 14]
[5]; after 3 days
  mortality at 0.001 %: 95%
  mortality at 0.01 %: 100%
[5]; [9]
  mortality at 0.1 %: 100%
[1]
  LD50 at 168 h: > 1000 mg/kg

## CCCSP(=S)(OCC)Oc1ccc(=O)n(-c2ccc(C)cc2)n1 (stereo not drawn) [Compound 15]
[2]; active compound concentration 3 ppm
  mortality at 3 ppm: > 50%
[2]
  mortality at 10 ppm: 100%
  mortality at 30 ppm: 100%
  mortality at 100 ppm: 100%
[1]
  LD50 at 168 h: ~500 mg/kg

## CCCSP(=S)(OCC)Oc1ccc(=O)n(-c2ccc(Cl)cc2)n1 (stereo not drawn) [Compound 16]
[1]
  LD50 at 168 h: > 1000 mg/kg

## CCCSP(=S)(OCC)Oc1ccc(=O)n(-c2cccc(Cl)c2)n1 (stereo not drawn) [Compound 17]
[1]
  LD50 at 168 h: > 1000 mg/kg

## CCCSP(=S)(OCC)Oc1ccc(=O)n(C2CCS(=O)(=O)C2)n1 (stereo not drawn) [Compound 18]
[1]
  LD50 at 168 h: ~500 mg/kg

## CCCSP(=S)(OCC)Oc1nn(CN2CCCC2)c(=O)c2ccccc12 (stereo not drawn) [Compound 19]
[4]; after 1 day
  mortality at 0.01 %: 100%
[4]; [8]
  mortality at 0.1 %: 100%
[1]
  LD50 at 168 h: 100 to 250 mg/kg

## CCCSP(=S)(OCC)Oc1nn(CN2CCCCC2)c(=O)c2ccccc12 (stereo not drawn) [Compound 20]
[3]
  mortality at 0.01 %: 80%
  mortality at 0.1 %: 100%
[1]
  LD50 at 168 h: 250 to 500 mg/kg

## CCCSP(=S)(OCC)Oc1n[nH]c(=O)c2ccccc12 (stereo not drawn) [Compound 21]
[1]
  LD50 at 168 h: ~500 mg/kg

## CCOP(=S)(OCC)Oc1n[nH]c(=O)c2ccccc12 [Compound A, O,O-diethyl-O-[phthalaz-(8)-on-(3)-yl]-thionophosphoric acid ester]
[3]
  mortality at 0.1 %: 0%
[6]
  toxicity to warm-blooded animals: high toxicity to warm-blooded animals
[5]; [9]
  mortality at 0.1 %: 0%
[7]
  insecticidal and acaricidal properties: good insecticidal and acaricidal properties
[1]
  LD50 at 168 h: ~25 mg/kg

## CCOP(=S)(OCC)Oc1ccc(=O)[nH]n1 [Compound B, O,O-diethyl-O-[pyridaz-(6)-on-(3)-yl]-thionophosphoric acid ester]
[3]
  mortality at 0.1 %: 20%
[6]
  toxicity to warm-blooded animals: high toxicity to warm-blooded animals
[5]; after 3 days
  mortality at 0.001 %: 0%
  mortality at 0.01 %: 80%
[5]; [9]
  mortality at 0.1 %: 100%
[2]
  mortality at 30 ppm: < 50%
[2]; active compound concentration 300 ppm
  mortality at 300 ppm: 100%
[7]
  insecticidal and acaricidal properties: good insecticidal and acaricidal properties
[1]
  LD50 at 168 h: 2.5 to 5 mg/kg

## CCOP(=S)(OCC)Oc1ccc(=O)n(C)n1 [Compound C, O,O-diethyl-O-[1-methyl-pyridaz-(6)-on-(3)-yl]-thionophosphoric acid ester]
[6]
  toxicity to warm-blooded animals: high toxicity to warm-blooded animals
[7]
  insecticidal and acaricidal properties: good insecticidal and acaricidal properties
[1]
  LD50 at 168 h: 5 to 10 mg/kg

## CCOP(=S)(OCC)Oc1ccc(=O)n(CCC#N)n1 [Compound D, O,O-diethyl-O-[1-β-cyanoethyl-pyridaz-(6)-on-(3)-yl]-thionophosphoric acid ester]
[6]
  toxicity to warm-blooded animals: high toxicity to warm-blooded animals
[7]
  insecticidal and acaricidal properties: good insecticidal and acaricidal properties
[1]
  LD50 at 168 h: 10 to 25 mg/kg

## CCOC(=O)Cn1nc(OP(=S)(OCC)OCC)ccc1=O [Compound E, O,O-diethyl-O-[1-ethoxycarbonylmethyl-pyridaz-(6)-on-(3)-yl]-thionophosphoric acid ester, reference compound]
[6]
  toxicity to warm-blooded animals: high toxicity to warm-blooded animals
[2]
  mortality at 10 ppm: > 50%
  mortality at 100 ppm: 100%
[7]
  insecticidal and acaricidal properties: good insecticidal and acaricidal properties

## CCOP(=S)(OCC)Oc1ccc(=O)n(-c2ccc(C)cc2)n1 [Compound F, O,O-diethyl-[1-p-methylphenyl-pyridaz-(6)-on-(3)-yl]-thionophosphoric acid ester, reference compound]
[3]
  mortality at 0.01 %: 0%
  mortality at 0.1 %: 40%
[6]
  toxicity to warm-blooded animals: high toxicity to warm-blooded animals
[7]
  insecticidal and acaricidal properties: good insecticidal and acaricidal properties
[1]
  LD50 at 168 h: 50 to 100 mg/kg

## CCOP(=S)(OCC)Oc1ccc(=O)n(CCC(C)=O)n1 [G]
[5]; after 3 days
  mortality at 0.001 %: 0%
  mortality at 0.01 %: 80%
[5]
  mortality at 0.1 %: 100%
[1]
  LD50 at 168 h: 10 to 25 mg/kg

## CCOP(=S)(OCC)Oc1n[nH]c(=O)c2ccccc12 [known, reference compound]
[4]; after 1 day
  mortality at 0.01 %: 0%
[4]
  mortality at 0.1 %: 100%
